Counter-ions that a name gives are not always drawn.
Molecular target: T1, delta (Mus musculus, UniProt P32300)
T1 construct: Vasa deferentia were obtained from CD-1 mice; from tissue; host or cells: vas deferens of CD-1 mice
Test: Mouse vas deferens (MVD) bioassay, delta agonist/antagonist activity
Details: CD-1 mouse vasa deferentia, electrically stimulated, Mg2+-free Krebs buffer, 37° C.
Method: The delta agonist/antagonist activity of the compounds of the present invention is determined in the mouse vas deferens (MVD) bioassay as described below.
Vasa deferentia were obtained from CD-1 mice and were suspended in a Mg^2+ - free Krebsa buffer at 37° C. The tissues were electrically stimulated with pulse trains having the following parameters: train duration 50 ms, stimulus duration 2 ms, frequency of stimuli 50 Hz, maximal voltage 60-70 V, train frequency 0.1 Hz. Concentration response curves for each compounds were constructed cumulatively. Linear regression analysis and IC50 concentrations were evaluated according to Talarida and Murray (Manual of Pharmacological Calculations, Springer Verlag NY, 1981).

T1 sequence (P32300 whole entry): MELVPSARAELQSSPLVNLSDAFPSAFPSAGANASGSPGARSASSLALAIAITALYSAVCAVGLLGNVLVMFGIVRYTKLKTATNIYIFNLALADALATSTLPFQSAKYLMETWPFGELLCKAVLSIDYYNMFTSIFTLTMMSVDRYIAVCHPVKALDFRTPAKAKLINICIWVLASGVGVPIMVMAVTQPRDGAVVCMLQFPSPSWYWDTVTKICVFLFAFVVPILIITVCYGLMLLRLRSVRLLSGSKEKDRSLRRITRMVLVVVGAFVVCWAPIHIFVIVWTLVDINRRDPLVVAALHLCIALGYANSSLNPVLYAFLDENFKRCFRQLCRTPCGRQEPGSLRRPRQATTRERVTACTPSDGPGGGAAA

## CCN(CC)C(=O)c1ccc(/C(=C\CN2CCCC2)c2cccc(O)c2)cc1 [Example 2, (E)-N,N-Diethyl-4-[[1-(3-hydroxyphenyl)-3-pyrrolidin-1-yl]-1-propenyl]benzamide citrate]
  IC50: 30 nM

From patent publication US6262104A, “Diarylalkenylamine derivatives” (SmithKline Beecham p.l.c., priority 1995, dated 2001)
